Experimental data from patent publication US8809389B2, “Substituted alkynyl phenoxy compounds as new synergists in pesticidal compositions” (Endura S.p.A., priority 2009, dated 2014).

Experiments:
[1] = test system: P450 enzymes (oxidases) of pollen beetle homogenate; assay: Oxidase assay: 7-ethoxycoumarin O-deethylation inhibition in pollen beetle homogenate; type: biochemical, Meligethes aeneus; conditions: 3 μl of 10 mM compound, enzyme plus acetone = 100
Method: The ability of the novel compositions comprising the synergists of Formula (I) to inhibit P450 enzymes, a major mechanism conferring resistance to xenobiotics, was measured using pollen beetle homogenate.
Approximately 50 non-sexed adult pollen beetle from each population were homogenised on ice in 1 ml 0.1 M sodium phosphate buffer, pH 7.6, containing, 1 mM EDTA, 1 mM DTT, 1 mM PTU, 1 mM PMSF and centrifuged at 10 000×g for 10 min. The resulting supernatant was used as the enzyme source.
The O-deethylation inhibition by compounds of Example 2 or 3 was measured using 7-ethoxycoumarin (7-EC) according to Ullrich and Weber (Ullrich V and Weber P, The O-dealkylation of 7-ethoxycoumarin by liver microsomes. Z Physiol Chem 353: 1171-1177 (1972)) and adapted to the microplate format as described by DeSousa (De Sousa G, Cuany A, Brun A, Amichot M, Rahmani R, Berge J B, A microfluorometric method for measuring ethoxycoumarin-O-deethylase activity on individual Drosophila melanogaster abdomens: interest for screening resistance in insect populations Analyt. Biochem 229: 86-91 (1995)). Briefly, 7-EC was dissolved in ethanol to make a 20 mM stock solution and diluted by the addition of 0.1 M, pH 7.8 sodium phosphate buffer to give a concentration of 0.5 mM. Fifty microliters of pollen beetle enzyme were added to separate wells of a microplate, followed by the addition of 3 μl 10 mM of either compounds of Example 2 or 3 or acetone only. After 10 min incubation in room temperature, 80 μl 0.5 mM 7-EC was added following by another 5 min at 30° C. The reaction initiated by the addition of 10 μl 9.6 mM NADPH in 0.1 M sodium phosphate, pH 7.8. Enzyme activity was measured in a Victor^2 1420 multilabel counter (Wallac, Milton Keynes, UK) for 60 min with readings taken every 5 min, using an excitation wavelength of 370 nm and an emission wavelength of 460 nm. All assays were performed in triplicate.
The ability of the composition comprising the compounds of Examples 2 and 3 to inhibit oxidases derived from the 3 different pollen beetle populations is presented in Table 7.

[2] = biological target: T1, purified resistance-associated esterase (E4) (Myzus persicae, UniProt P35501); assay: Esterase interference assay (indirect determination of esterase inhibition); type: biochemical; conditions: no esterase = 0%, uninhibited E4 = 100%
T1 construct: 5 g of aphids (stored at −20° C.) were homogenised in 0.02 M phosphate buffer pH 7.0; from tissue; host or cells: whole Myzus persicae aphids, clone 794JZ; homogenate purified over G-25 and DEAE Sepharose Fast Flow
T1 sequence (P35501 24-552): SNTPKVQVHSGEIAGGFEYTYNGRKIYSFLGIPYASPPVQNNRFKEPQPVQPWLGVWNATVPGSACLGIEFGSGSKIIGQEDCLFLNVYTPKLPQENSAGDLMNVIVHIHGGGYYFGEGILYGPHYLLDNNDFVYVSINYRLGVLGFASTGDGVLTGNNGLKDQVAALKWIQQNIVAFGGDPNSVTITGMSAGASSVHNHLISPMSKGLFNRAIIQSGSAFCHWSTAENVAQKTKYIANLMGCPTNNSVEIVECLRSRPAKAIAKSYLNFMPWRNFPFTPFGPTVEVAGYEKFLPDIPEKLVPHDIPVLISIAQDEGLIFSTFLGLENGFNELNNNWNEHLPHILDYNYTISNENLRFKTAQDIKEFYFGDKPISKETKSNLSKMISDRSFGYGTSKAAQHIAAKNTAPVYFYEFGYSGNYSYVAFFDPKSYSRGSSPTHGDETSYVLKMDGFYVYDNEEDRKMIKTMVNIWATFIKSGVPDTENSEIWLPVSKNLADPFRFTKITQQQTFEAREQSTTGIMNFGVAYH
Text: Measuring the in vitro inhibition is not straight forward, as synergists may bind to a site other than the active site.
The esterase used was the well-characterised resistance associated esterase purified from M. persicae, E4, (aphid clone: 794JZ) as per Devonshire (1977) with some modifications(Devonshire A L, The properties of a carboxylesterase from the peach-potato aphid, Myzus persicae (Sulz.) and its role in conferring insecticide resistance. Biochem J 167: 675-683 (1977)). Briefly, 5 g of aphids (stored at −20° C.) were homogenised in 0.02 M phosphate buffer pH 7.0 and centrifuged at 20 000 g for 10 min. The supernatant was passed through a G-25 column using 0.02M Tris/HCl, pH 8.5 buffer. Unretarded fractions containing esterase activity were further chromatographed through DEAF Sepharose Fast Flow (Amersham Biosciences) and eluted with a linear 0-0.35 M NaCl gradient in 500 ml of Tris/HCl as above. Fractions containing carboxylesterase activity in the form of E4 were concentrated, desalted, and buffer exchanged to 0.02 M phosphate pH 7.0 for storage.
Interactions of the purified resistance-associated esterase (E4) with Compound of Example 2, Compound of Example 3, Compound of Example 4, Compound of Example 9 and Compound of Example 11 were performed using the ‘esterase interference assay’, as described by Khot et al., with some modifications. Devonshire A L, The properties of a carboxylesterase from the peach-potato aphid, Myzus persicae (Sulz.) and its role in conferring insecticide resistance. Biochem J 167: 675-683 (1977)). Briefly, stock solutions of novel synergists (3 mM in acetone) were pre-incubated with pure E4, to give a final concentration of 0.03 mM, for 16 h at 4° C. Aliquots (15 μl ) of E4, E4+Compound of Example 2, E4+Compound of Example 3, E4+Compound of Example 4, E4+Compound of Example 9 and E4+Compound of Example 11 were incubated for 1 h with 60 μl of serial dilutions of azamethiphos in 0.02M phosphate buffer, pH 7, in separate wells of a NUNC microplate. Aliquots (25 p1) of house fly head homogenate (source of AChE) were added to each well and incubated for 15 minutes at room temperature. E4 in acetone and buffer only served as the positive and the negative controls respectively. AChE activity was measured at 405 nm using a Tmax kinetic microplate reader (Molecular Devices, Menlo Park, Calif.). Readings were taken automatically for 10 min at 10 s intervals. The rate (mOD min^−1) was calculated by the integrated software, Softmax Pro 4.6. All treatments were performed in triplicate.
No added esterase is giving 0% esterase protection and uninhibited esterase (E4) is giving 100% protection.
The materials and procedure as stated in Example 13, paragraphs 13.1, 13.1.2, 13.1.2.1 and 13.1.2.2. have been used and the following results have been obtained: […]

[3] = test system: pollen beetle, Meligethes aeneus; assay: Discriminating dose bioassay: α-cypermethrin in mixture with synergist; type: in vivo; conditions: for % Mortality: 24 h
Method: Two pyrethroid resistant populations originating from two different areas in Poland ‘Rogalin'and lebork’ were collected in July 2008. A putative susceptible population, UK population, was also collected in July 2008 in Hertfordshire, UK. All populations were collected from oilseed rape contained adults only and were kept at room temperature before assays were performed.
Bioassays incorporating the compounds (Compound of Example 2 and Compound of Example 3) dissolved in acetone, were carried out using a diagnostic concentration of α-cypermethrin derived from the above full dose response bioassays in a mixture of 0.01 g L^−1 of the compounds. The concentration of α-cypermethrin used for the discriminating dose bioassays was 0.3 ppm α-cypermethrin for the two polish populations, Rogalin and Lebork and 0.03 ppm α-cypermethrin for UK population. Vials treated with the compounds only, dissolved in acetone and acetone only were used as controls. Ten to 15 replicates were used for each treatment depending on insect numbers within the population. Compounds concentrations chosen conferred no mortality in preliminary bioassays.
Treated vials including the pollen beetles were stored in constant environment facilities at 18±2° C. and 16L: 8D. All bioassays were scored at an endpoint of 24 h after exposure to the insecticide. Insects incapable of coordinated movement (after gentle touching with a pencil brush if necessary) were scored as dead.

## CC#CCOc1ccc2c(c1)OCO2 [Example 2, 5-(but-2-ynyloxy)-benzo[1.3]dioxole]
[1]; Lebork homogenate
  Inhibition of 7-ethoxycoumarin O-deethylation (%): −38.98%
[1]; Rogalin homogenate
  Inhibition of 7-ethoxycoumarin O-deethylation (%): −11.25%
[1]; UK population homogenate
  Inhibition of 7-ethoxycoumarin O-deethylation (%): −9.3%
[2]; Table 2 (Example 13), 0.03 mM compound pre-incubated with E4 16 h at 4° C.
  Esterase protection (%) after pre-incubation with compound: 10.36%
[2]; second 'TABLE 3' (Example 16), procedure as Example 13
  Esterase protection (%) after pre-incubation with compound: 10.35%
[3]; Lebork, 0.3 ppm α-cypermethrin in mixture with 0.01 g L^−1 synergist
  % Mortality: 85.21%
[3]; Rogalin and Lebork, 0.3 ppm α-cypermethrin in mixture with 0.01 g L^−1 synergist
  Mortality: around 85%
[3]; Rogalin, 0.3 ppm α-cypermethrin in mixture with 0.01 g L^−1 synergist
  % Mortality: 80.56%
[3]; UK population, 0.03 ppm α-cypermethrin in mixture with 0.01 g L^−1 synergist
  % Mortality: 71.68%
[3]; synergist only, without α-cypermethrin (data not shown)
  Mortality with the compound only: No mortality
